Experimental data as given in US11744819B2, “Antibiotic cannabinoid-terpene formulations” (priority 2019, dated 2023).
Values after ≈ are worked out from the molar mass of the structure shown. Values joined by “and” are separate entries in the source; they are usually repeats but may differ in a detail not shown here. Identical values can stand only once. Like-named read-outs stand apart in the source and are kept apart here.

Experiments:
[1] = test system: E. faecium strains 3303, 69C6, 58C9 and 55A6; experiment: Kill curves (CFU by serial dilution); format: cell-based, Enterococcus faecium; conditions: for bactericidal activity (viability, CFU): cannabinoid alone, 1x-4x MIC, planktonic E. faecium; for growth and CFU in combination with daptomycin: ½×MIC of cannabinoid with 1×-⅛×MIC of daptomycin, strains 3303, 58C9, 55A6
[2] = test system: E. faecium clinical isolate 69C6 (vancomycin resistant)
E. faecium 3303 = experiment: microbe, parasite or virus in culture; format: cell-based, Enterococcus faecium; conditions: for MIC Alone / MIC: compound alone in checkerboard; for Max. fold change in MIC: decrease; for MIC: Enterococcus faecium, 3303, read-out: MIC Alone, E. faecium 3303
From the text: In therapeutic applications, synergy between active ingredients occurs when an observed combined therapeutic effect is greater than the sum of therapeutic effects of individual active ingredients, or a new therapeutic effect is produced that the active ingredients could not produce alone. […] In this context, the enhancement of therapeutic effect may take the form of increased efficacy or potency and/or decreased adverse effects. The synergistic effect may be mediated in whole or in part by the pharmacokinetics and/or pharmacodynamics of the active ingredients in a subject, so that the amount and proportion of the ingredients in the formulation may be synergistic in vivo. This in vivo synergy may be effected with a formulation that includes the active ingredients in amounts and proportions that are also synergistic in in vitro assays of efficacy. As used herein, the term “synergistically effective amounts” accordingly refers to amounts that are synergistic in vivo and/or in vitro. A numeric quantification of synergy is often expressed as a fractional inhibitory concentration index (FICI), which represents the sum of the fractional inhibitory concentrations (FICs) of each drug tested, where the FIC is determined for each drug by dividing the minimum inhibitory concentration (MIC, the lowest concentration of the drug which prevents visible growth of the bacterium in a standard in vitro assay-standard colorometric assay based on resazurin) of each drug when used in combination by the MIC of each drug when used alone. In very general terms, a FICI lower or higher than 1 indicates positively correlated activity (at least additive or potentiation) or an absence of positive interactions, respectively. More definitively, synergy of two compounds may be conservatively defined as a FICI of ::::0.5 (see Odds, 2003; with additivity or potentiation corresponding to a FICI of >0.5 to ::::0.75; no interaction (indifference) corresponding to a FICI of >1 to ::::4; and antagonism corresponding to a FICI of >>4). Synergy of three compounds has been defined as a FICI of ::::1.0. (Berenbaum, 1978; Yu et al., 1980). To estimate the optimal concentrations in triple combinations, the optimal concentrations of trans-caryophyllene and cannabinoid were utilized in combination with a series of daptomycin dilutions.
Pre-cultures of bacteria growing in their corresponding liquid media (defined below) were diluted to an 00600 of 0.0025 and 100 μl was added to 100 μl of medium containing serial 2-fold dilutions of cannabinoid (cannabinoid stocks, in methanol or acetonitrile for acidic forms, were diluted in growth medium) in 96-well plates. Plates were then incubated for 20-24 h at 37° C., and growth was recorded as 00600 in a Thermo Scientific™ Varioskan™ Flash Multimode Reader.
Method for Tables 4-7. Interaction of Cannabinoids CBC, CBD and CBG with Terpenes and Daptomycin:
FICI values was determined in a 96 well checkerboard format using the MIC assay for cannabinoids (compound A), terpenes (compound B), and daptomycin (compound C) alone and in combinations. Terpene stocks were prepared in DMSO and diluted in the growth medium. The fractional inhibitory concentration for each compound was calculated as follows: FICA=(MIC of compound A in the presence of compound B)/(MIC of compound A alone). Similarly, the FICs for compounds Band C were calculated. The FICI was calculated as FICA plus FICs plus FICc.

[3] = test system: Staphylococcus aureus MRSA; experiment: microbe, parasite or virus in culture; format: cell-based
[4] = test system: E. faecium clinical isolate 55A6 (vancomycin and daptomycin resistant)
[5] = test system: Staphylococcus epidermidis ATCC 12228; experiment: MIC determination; format: cell-based; conditions: ATCC12228
[6] = test system: E. faecium clinical isolate 55A6 (vancomycin and daptomycin resistant); experiment: microbe, parasite or virus in culture; conditions: Enterococcus faecium
[7] = test system: Enterococcus faecium 33D3; experiment: microbe, parasite or virus in culture
Enterococcus faecalis = experiment: MIC determination; format: cell-based
[8] = test system: Mycobacterium tuberculosis H37Rv; experiment: MIC determination (PrestoBlue); format: cell-based; conditions: Mycobacterium tuberculosis, H37RV
[9] = test system: Mycobacterium abscessus ATCC 19977; experiment: MIC determination (resazurin); format: cell-based; conditions: Mycobacteroides abscessus, ATCC19977
[10] = test system: Staphylococcus epidermidis ATCC 14990; experiment: MIC determination; format: cell-based; conditions: ATCC14990
[11] = test system: Streptococcus pyogenes ATCC 51878; experiment: MIC determination; format: cell-based; conditions: ATCC51878
[12] = test system: Enterococcus faecium 33D3; conditions: for MIC: clinical enterococcal strain 3303
[13] = test system: E. faecium clinical isolate 58C9 (vancomycin and daptomycin resistant); experiment: microbe, parasite or virus in culture; conditions: Enterococcus faecium
[14] = test system: E. faecium clinical isolate 69C6 (vancomycin resistant); experiment: microbe, parasite or virus in culture; conditions: Enterococcus faecium
[15] = E. faecium 3303, pairwise, with daptomycin
[16] = E. faecium 3303, pairwise, with trans-caryophyllene
[17] = E. faecium 3303, triple, with daptomycin and trans-caryophyllene
[18] = 33D3, Enterococcus faecium 33D3 (Table 1)
[19] = 33D3, clinical enterococcal strain 3303
[20] = E. faecium 3303, pairwise, with CBC
[21] = E. faecium 3303, pairwise, with CBD
[22] = E. faecium 3303, pairwise, with CBG
[23] = E. faecium 3303, text b61, Table 5
[24] = E. faecium 3303, triple, with CBC and trans-caryophyllene
[25] = E. faecium 3303, triple, with CBG and trans-caryophyllene

CCCCCc1cc(O)c2c(c1)OC(C)(CCC=C(C)C)C=C2 (stereo not drawn) [CBC, cannabichromene]
kinetics of E. faecium killing ([1]; at equal concentrations of CBD, CBG, or CBC, FIG. 1): faster than for CBO
bactericidal activity (viability, CFU) ([1]; FIG. 1): bactericidal
growth and CFU in combination with daptomycin [1]: significantly inhibited growth of all strains and reduced CFU
Fold reduction in daptomycin MIC in combination with the cannabinoid ([2]; E. faecium isolate 69C6): 32 Fold
MIC Alone (E. faecium 3303; E. faecium 3303): 2 µg/mL
MIC In combination (E. faecium 3303; [15]): 0.5 µg/mL
Max. fold change in MIC (E. faecium 3303; [15]): 4 l fold
MIC In combination (E. faecium 3303; [16]): 0.125 µg/mL
Max. fold change in MIC (E. faecium 3303; [16]): 16 l fold
MIC In combination (E. faecium 3303; [17]): 0.25 µg/mL
Max. fold change in MIC (E. faecium 3303; [17]): 8 l fold
MIC (E. faecium 3303): 1 µg/mL
MIC [3]: 4 µg/mL (≈ 12.7 µM)
Fold reduction in daptomycin MIC in combination with the cannabinoid ([4]; E. faecium isolate 55a6): 512 Fold
MIC ([5]; Staphylococcus epidermidis): 4 µg/mL (≈ 12.7 µM)
MIC [6]: 1 µg/mL (≈ 3.18 µM)
MIC [7, 18]: 1 to 2 µg/mL (≈ 3.18 to 6.36 µM)
MIC [7, 19]: 1 µg/mL (≈ 3.18 µM)
MIC (Enterococcus faecalis): 2 µg/mL (≈ 6.36 µM)
MIC ([8]; Media 7H9, read-out: MIC): 8 µg/mL (≈ 25.4 µM)
MIC ([8]; Media PB, read-out: MIC): 4 µg/mL (≈ 12.7 µM)
MIC [9]: 4 µg/mL (≈ 12.7 µM)
MIC ([10]; Staphylococcus epidermidis): 4 µg/mL (≈ 12.7 µM)
MIC ([11]; Streptococcus pyogenes): 1 µg/mL (≈ 3.18 µM)
Fold reduction in daptomycin MIC in combination with the cannabinoid ([12]; E. faecium isolate 3303): 128 Fold
MIC [13]: 1 µg/mL (≈ 3.18 µM)
MIC [14]: 1 µg/mL (≈ 3.18 µM)

C=C(C)[C@@H]1CCC(C)=C[C@H]1c1c(O)cc(CCCCC)cc1O [CBD, cannabidiol, reference compound]
bactericidal activity (viability, CFU) ([1]; FIG. 1): bactericidal
growth and CFU in combination with daptomycin [1]: significantly inhibited growth of all strains and reduced CFU
MIC Alone (E. faecium 3303; E. faecium 3303): 2 µg/mL
MIC In combination (E. faecium 3303; [15]): 1 µg/mL
Max. fold change in MIC (E. faecium 3303; [15]): 4″′ fold
MIC In combination (E. faecium 3303; [16]): 0.125 µg/mL
Max. fold change in MIC (E. faecium 3303; [16]): 16″′ fold
MIC In combination (E. faecium 3303; [17]): 0.5 µg/mL
Max. fold change in MIC (E. faecium 3303; [17]): 4 fold
MIC (E. faecium 3303): 4 µg/mL
MIC ([3]; read-out: MIC): 2 µg/mL (≈ 6.36 µM)
MIC ([5]; Staphylococcus epidermidis ATCC 12228, read-out: MIC): 2 µg/mL (≈ 6.36 µM)
MIC [6]: 2 µg/mL (≈ 6.36 µM)
MIC [7, 18]: 1 to 2 µg/mL (≈ 3.18 to 6.36 µM)
MIC [7, 19]: 1 µg/mL (≈ 3.18 µM)
MIC (Enterococcus faecalis; read-out: MIC): 2 µg/mL (≈ 6.36 µM)
MIC ([8]; Media 7H9, read-out: MIC): 16 µg/mL (≈ 50.9 µM)
MIC ([8]; Media PB, read-out: MIC): 4 µg/mL (≈ 12.7 µM)
MIC ([9]; Mycobacterium abscessus ATCC 19977, read-out: MIC): 16 µg/mL (≈ 50.9 µM)
MIC ([10]; Staphylococcus epidermidis ATCC 14990, read-out: MIC): 2 µg/mL (≈ 6.36 µM)
MIC ([11]; Streptococcus pyogenes ATCC 51878, read-out: MIC): 1 µg/mL (≈ 3.18 µM)
MIC [13]: 1 µg/mL (≈ 3.18 µM)
MIC [14]: 1 µg/mL (≈ 3.18 µM)

CCCCCCCCCC(=O)N[C@@H](Cc1c[nH]c2ccccc12)C(=O)N[C@H](CC(N)=O)C(=O)N[C@@H](CC(=O)O)C(=O)N[C@@H]1C(=O)NCC(=O)N[C@@H](CCCN)C(=O)N[C@@H](CC(=O)O)C(=O)N[C@H](C)C(=O)N[C@@H](CC(=O)O)C(=O)NCC(=O)N[C@H](CO)C(=O)N[C@@H]([C@H](C)CC(=O)O)C(=O)N[C@@H](CC(=O)c2ccccc2N)C(=O)O[C@@H]1C [Daptomycin, daptomycin, reference compound]
reduction in CFU ([1]; daptomycin alone at 1×MIC (growth inhibited)): no reduction in CFU
inhibition of growth ([1]; single agent at ½×MIC, all strains (3303, 58C9, 55A6)): effectively no inhibition of growth
MIC ([2]; clinical enterococcal strain 69C6, vancomycin resistant): 1 µg/mL (≈ 0.617 µM)
MIC Alone (E. faecium 3303; E. faecium 3303): 8 µg/mL
MIC Alone (E. faecium 3303; E. faecium 3303, listed as daptomycin): 4 µg/mL
MIC In combination (E. faecium 3303; [20]): 0.03125 µg/mL
Max. fold change in MIC (E. faecium 3303; [20]): 128 l fold
Max. fold change in MIC (E. faecium 3303; E. faecium 3303, pairwise, with CBC, listed as daptomycin): 128 fold
MIC In combination (E. faecium 3303; [21]): 0.25 µg/mL
Max. fold change in MIC (E. faecium 3303; [21]): 16″′ fold
MIC In combination (E. faecium 3303; [22]): 0.25 µg/mL
Max. fold change in MIC (E. faecium 3303; [22]): 32″′ fold
MIC In combination (E. faecium 3303; [16]): 0.5 µg/mL
Max. fold change in MIC (E. faecium 3303; [16]): 8 l fold and 8″′ fold
MIC of daptomycin (alone) (E. faecium 3303; [23]): 8 µg/mL
MIC of daptomycin in the presence of CBO and trans caryophyllene (E. faecium 3303; [23]): 0.03 µg/mL
MIC In combination (E. faecium 3303; [24]): 4 µg/mL
Max. fold change in MIC (E. faecium 3303; [24]): 2 l fold
MIC In combination (E. faecium 3303; E. faecium 3303, triple, with CBD and trans-caryophyllene): 0.03 µg/mL
Max. fold change in MIC (E. faecium 3303; E. faecium 3303, triple, with CBD and trans-caryophyllene, listed as daptomycin): 256 fold
MIC In combination (E. faecium 3303; [25]): 2 µg/mL
Max. fold change in MIC (E. faecium 3303; [25]): 4 l fold
MIC ([4]; clinical enterococcal strain 55A6, vancomycin and daptomycin resistant): 8 µg/mL (≈ 4.94 µM)
MIC [12]: 2 µg/mL (≈ 1.23 µM)
MIC ([12]; listed as daptomycin): 1 µg/mL (≈ 0.617 µM)
